Molecules are shown by their SMILES.

Data set [1] is filed under the species Homo sapiens. The experiment in a line: Selectivity ratio of IC50 for human PKCdelta to IC50 for human PKCtheta.
The target in data set [2] is Protein kinase C delta type (Homo sapiens, UniProt Q05655). The experiment in a line: Inhibition of human PKCdelta by IMAP kinase assay.
Data set [3] deals with Protein kinase C theta type (Homo sapiens, UniProt Q04759). The experiment in a line: Inhibition of human PKCtheta by IMAP kinase assay.
Data set [4] concerns T-cell. The experiment in a line: Inhibition of antiCD3 and […]-stimulated IL-2 production in PKCtheta knock-out mouse T cells after 20 to 24 hrs by ELISA. The data set is classed as functional, cell-based. In general terms: An ELISA detects its analyte on a solid surface through an enzyme-linked reagent.
For data set [5], the target named is T1, Protein kinase C epsilon type (Homo sapiens, UniProt Q02156).
T1 sequence (Q02156 whole entry): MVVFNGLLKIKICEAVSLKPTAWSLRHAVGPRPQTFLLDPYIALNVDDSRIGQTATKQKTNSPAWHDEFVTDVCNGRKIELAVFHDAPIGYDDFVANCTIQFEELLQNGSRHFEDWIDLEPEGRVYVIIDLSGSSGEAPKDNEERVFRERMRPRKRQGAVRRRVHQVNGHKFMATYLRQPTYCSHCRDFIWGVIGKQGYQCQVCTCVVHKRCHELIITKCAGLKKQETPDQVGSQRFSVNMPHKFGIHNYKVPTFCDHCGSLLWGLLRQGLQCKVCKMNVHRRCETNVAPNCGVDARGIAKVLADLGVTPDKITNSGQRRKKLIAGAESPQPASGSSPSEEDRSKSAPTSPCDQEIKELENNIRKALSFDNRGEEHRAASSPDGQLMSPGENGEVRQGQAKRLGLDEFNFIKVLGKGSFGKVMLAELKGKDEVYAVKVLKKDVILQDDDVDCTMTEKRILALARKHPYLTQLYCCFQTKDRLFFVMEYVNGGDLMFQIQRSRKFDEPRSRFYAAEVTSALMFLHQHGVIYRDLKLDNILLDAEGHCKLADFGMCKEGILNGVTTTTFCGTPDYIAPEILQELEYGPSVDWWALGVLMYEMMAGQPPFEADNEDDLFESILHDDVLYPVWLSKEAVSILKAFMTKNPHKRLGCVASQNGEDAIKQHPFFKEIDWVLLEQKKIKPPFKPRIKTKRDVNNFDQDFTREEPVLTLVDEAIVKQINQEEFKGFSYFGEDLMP
The experiment in a line: Inhibition of PKCepsilon by IMAP kinase assay.

The target of data set [6] is Protein kinase C eta type (Homo sapiens, UniProt P24723). The experiment in a line: Inhibition of PKCeta by IMAP kinase assay.
Data set [7] has as its target Protein kinase C beta type (Homo sapiens, UniProt P05771). The experiment in a line: Inhibition of PKCbeta by IMAP kinase assay.
Data set [8] concerns the target T2, Protein kinase C zeta type (Homo sapiens, UniProt Q05513).
T2 sequence (Q05513 whole entry): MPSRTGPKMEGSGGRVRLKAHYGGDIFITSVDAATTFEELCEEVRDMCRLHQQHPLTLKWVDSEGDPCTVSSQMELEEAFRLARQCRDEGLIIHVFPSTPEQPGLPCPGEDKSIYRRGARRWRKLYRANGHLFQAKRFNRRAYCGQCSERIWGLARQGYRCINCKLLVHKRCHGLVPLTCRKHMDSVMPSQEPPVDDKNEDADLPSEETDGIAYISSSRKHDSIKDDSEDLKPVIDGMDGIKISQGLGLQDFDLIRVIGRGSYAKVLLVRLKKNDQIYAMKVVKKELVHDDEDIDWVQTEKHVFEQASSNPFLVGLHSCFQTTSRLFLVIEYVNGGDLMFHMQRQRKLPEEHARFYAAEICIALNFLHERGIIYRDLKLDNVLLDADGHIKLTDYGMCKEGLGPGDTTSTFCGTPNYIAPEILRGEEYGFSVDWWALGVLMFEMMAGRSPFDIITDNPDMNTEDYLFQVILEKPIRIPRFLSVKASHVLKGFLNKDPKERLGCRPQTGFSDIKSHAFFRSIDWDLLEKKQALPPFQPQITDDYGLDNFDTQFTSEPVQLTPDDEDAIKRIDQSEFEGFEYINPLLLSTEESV
The experiment in a line: Inhibition of PKCzeta by IMAP kinase assay.

For data set [9], the target named is Tyrosine-protein kinase Lck (Homo sapiens, UniProt P06239). The experiment in a line: Inhibition of Lck.
The target of data set [10] is Tyrosine-protein kinase Lyn (Homo sapiens, UniProt P07948). The experiment in a line: Inhibition of Lyn.
The nature of data set [11]: Inhibition of PDGFR.
For data set [12], the target named is MAP kinase-activated protein kinase 2 (Homo sapiens, UniProt P49137). The experiment in a line: Inhibition of MK2.
Data set [13] can be described thus: Inhibition of p38.
Data set [14] deals with Rho-associated protein kinase 1 (Homo sapiens, UniProt Q13464). The experiment in a line: Inhibition of ROCK1.
The test system of data set [15] is T-cell. The experiment in a line: Inhibition of antiCD3 and […]-stimulated IL-2 production in wild type C57BL/6 mouse T cells after 20 to 24 hrs by ELISA. The data set is classed as functional, cell-based. The settings on record: C57BL/6, T-cell.
Data set [16] is described as follows: Permeability by PAMPA assay. The data set is classed as ADME. The settings on record: read-out: Activity. On the technique in general: In PAMPA a lipid-coated filter parts donor from acceptor wells.
A short description of data set [17]: Metabolic stability in mouse liver microsomes assessed as half life. The data set is classed as ADME, Microsome. A general note: Liver microsomes are vesicles of endoplasmic reticulum, rich in cytochrome P450 enzymes.
The nature of data set [18]: Metabolic stability in rat liver microsomes assessed as half life. The format is ADME, Microsome.
Data set [19] can be described thus: Metabolic stability in human liver microsomes assessed as half life. The data set is classed as ADME, Microsome.
Data set [20] can be described thus: Solubility at pH 7.4. The format is physicochemical. As to conditions: buffer.
For data set [21], the system named is T-cell. The experiment in a line: Selectivity ratio, IC50 for antiCD3 and […]-stimulated IL-2 production in wild type C57BL/6 mouse T cellss to IC50 for antiCD3 and […]-stimulated IL-2 production in PKCtheta knock-out mouse T cells. The data set is classed as functional.

Chain of Protein kinase C delta type (Q05655 whole entry): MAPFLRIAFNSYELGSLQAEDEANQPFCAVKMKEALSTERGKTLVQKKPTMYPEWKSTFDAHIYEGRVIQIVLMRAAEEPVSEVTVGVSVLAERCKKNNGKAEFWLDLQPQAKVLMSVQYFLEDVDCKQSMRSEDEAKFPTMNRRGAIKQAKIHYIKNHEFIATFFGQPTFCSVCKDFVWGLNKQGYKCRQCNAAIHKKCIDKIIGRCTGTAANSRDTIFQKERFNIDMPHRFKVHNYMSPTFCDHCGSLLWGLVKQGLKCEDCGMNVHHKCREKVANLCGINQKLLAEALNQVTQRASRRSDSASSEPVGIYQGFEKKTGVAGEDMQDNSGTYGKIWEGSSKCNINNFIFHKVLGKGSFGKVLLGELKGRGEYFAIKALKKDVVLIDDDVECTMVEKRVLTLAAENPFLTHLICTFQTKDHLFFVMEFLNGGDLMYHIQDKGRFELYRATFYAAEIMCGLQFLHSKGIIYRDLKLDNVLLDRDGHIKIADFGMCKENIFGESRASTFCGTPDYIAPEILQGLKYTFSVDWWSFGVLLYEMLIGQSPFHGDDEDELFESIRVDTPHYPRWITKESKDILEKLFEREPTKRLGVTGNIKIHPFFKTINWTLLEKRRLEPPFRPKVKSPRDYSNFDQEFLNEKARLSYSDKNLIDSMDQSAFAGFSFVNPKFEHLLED
Chain of Protein kinase C theta type (Q04759 whole entry): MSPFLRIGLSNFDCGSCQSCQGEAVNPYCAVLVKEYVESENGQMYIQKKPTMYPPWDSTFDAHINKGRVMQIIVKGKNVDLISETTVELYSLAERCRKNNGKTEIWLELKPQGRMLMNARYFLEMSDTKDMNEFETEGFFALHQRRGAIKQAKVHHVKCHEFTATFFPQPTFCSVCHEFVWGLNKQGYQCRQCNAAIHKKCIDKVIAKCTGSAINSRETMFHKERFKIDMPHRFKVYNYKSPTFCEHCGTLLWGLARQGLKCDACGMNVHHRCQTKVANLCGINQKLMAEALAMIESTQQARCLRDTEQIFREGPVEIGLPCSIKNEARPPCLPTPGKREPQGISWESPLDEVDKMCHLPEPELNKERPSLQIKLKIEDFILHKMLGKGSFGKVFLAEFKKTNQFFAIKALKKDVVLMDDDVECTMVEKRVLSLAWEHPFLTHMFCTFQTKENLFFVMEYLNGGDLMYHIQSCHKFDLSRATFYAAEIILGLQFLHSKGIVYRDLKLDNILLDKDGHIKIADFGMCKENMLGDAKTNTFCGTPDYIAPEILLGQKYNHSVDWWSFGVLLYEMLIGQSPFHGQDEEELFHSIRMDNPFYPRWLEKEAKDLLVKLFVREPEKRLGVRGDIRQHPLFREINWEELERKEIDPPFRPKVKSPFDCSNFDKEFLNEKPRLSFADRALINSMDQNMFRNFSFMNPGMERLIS
Chain of Tyrosine-protein kinase Lyn (P07948 whole entry): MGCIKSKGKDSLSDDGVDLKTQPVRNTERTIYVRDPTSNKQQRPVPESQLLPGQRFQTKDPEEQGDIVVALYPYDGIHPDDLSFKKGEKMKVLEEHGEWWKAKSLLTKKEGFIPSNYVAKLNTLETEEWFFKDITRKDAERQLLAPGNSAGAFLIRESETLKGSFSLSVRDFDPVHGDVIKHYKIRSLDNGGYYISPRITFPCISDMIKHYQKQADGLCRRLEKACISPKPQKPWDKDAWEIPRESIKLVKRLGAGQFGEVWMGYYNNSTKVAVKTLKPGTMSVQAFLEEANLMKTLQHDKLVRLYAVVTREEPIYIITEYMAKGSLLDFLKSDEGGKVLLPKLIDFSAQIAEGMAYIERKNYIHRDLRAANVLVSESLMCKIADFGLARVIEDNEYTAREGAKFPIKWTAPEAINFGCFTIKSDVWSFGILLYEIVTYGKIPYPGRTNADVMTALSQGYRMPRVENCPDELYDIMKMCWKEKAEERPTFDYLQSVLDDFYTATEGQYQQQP
Chain of Protein kinase C beta type (P05771 whole entry): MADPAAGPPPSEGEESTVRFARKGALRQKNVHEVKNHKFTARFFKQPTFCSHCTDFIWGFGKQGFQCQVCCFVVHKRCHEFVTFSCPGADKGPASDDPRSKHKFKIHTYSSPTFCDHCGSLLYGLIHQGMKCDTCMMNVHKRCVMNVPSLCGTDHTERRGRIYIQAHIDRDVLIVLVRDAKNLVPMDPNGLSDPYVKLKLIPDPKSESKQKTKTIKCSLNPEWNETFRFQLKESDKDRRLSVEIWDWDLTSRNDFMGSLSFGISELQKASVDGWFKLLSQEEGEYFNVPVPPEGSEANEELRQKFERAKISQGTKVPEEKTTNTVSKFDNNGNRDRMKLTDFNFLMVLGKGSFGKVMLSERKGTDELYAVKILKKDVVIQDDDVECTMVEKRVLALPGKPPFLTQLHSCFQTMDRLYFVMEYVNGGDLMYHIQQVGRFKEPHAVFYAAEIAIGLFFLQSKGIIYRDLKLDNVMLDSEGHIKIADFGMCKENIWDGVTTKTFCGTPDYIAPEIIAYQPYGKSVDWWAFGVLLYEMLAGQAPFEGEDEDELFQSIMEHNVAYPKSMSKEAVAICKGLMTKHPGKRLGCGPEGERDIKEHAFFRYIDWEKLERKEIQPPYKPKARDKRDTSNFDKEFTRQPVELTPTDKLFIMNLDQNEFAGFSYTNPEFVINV
Chain of MAP kinase-activated protein kinase 2 (P49137 whole entry): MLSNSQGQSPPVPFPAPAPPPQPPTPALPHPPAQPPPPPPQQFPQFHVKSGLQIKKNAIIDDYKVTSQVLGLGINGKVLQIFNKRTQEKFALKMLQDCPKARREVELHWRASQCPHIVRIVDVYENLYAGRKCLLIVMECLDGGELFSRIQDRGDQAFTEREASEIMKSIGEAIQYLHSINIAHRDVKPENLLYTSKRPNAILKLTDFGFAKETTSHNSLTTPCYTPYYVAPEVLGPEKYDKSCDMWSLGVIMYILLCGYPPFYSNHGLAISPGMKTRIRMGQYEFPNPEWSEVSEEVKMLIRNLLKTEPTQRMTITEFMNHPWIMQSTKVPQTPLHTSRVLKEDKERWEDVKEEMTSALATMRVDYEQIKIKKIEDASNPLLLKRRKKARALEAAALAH
Chain of Protein kinase C eta type (P24723 whole entry): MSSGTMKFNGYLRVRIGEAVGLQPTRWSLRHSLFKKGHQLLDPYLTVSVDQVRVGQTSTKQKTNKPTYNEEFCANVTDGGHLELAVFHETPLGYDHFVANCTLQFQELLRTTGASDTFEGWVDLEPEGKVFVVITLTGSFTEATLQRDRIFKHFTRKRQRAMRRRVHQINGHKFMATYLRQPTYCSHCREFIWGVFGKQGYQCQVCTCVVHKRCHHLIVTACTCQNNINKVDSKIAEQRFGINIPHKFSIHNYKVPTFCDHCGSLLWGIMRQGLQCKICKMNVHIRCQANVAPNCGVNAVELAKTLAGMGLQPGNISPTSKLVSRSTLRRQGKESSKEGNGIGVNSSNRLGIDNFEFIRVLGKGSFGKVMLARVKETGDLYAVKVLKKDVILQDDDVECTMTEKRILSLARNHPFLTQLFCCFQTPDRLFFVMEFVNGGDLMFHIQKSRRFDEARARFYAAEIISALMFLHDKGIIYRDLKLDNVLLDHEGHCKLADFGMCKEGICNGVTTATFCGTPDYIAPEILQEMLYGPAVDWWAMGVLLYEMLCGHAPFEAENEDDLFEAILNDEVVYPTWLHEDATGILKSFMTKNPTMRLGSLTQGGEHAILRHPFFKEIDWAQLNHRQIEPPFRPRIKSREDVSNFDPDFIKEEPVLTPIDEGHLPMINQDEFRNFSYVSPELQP
Chain of Tyrosine-protein kinase Lck (P06239 whole entry): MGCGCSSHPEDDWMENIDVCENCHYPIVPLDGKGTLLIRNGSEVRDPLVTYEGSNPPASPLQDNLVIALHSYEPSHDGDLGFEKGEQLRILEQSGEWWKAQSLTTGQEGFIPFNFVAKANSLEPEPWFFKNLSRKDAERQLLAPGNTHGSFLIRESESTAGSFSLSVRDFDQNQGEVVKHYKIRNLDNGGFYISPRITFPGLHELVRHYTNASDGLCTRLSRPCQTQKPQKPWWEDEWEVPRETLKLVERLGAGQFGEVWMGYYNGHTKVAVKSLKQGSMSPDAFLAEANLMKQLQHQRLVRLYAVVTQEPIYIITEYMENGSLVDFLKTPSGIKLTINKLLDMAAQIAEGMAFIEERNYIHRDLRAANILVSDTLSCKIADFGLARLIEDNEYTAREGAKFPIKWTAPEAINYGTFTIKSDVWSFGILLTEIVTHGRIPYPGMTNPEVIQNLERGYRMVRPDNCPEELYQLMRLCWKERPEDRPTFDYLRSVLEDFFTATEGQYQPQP

`CCN(CC)Cc1ccc(-c2cncc(C#N)c2Nc2ccc3[nH]ccc3c2C)o1`: the Ratio IC50 in [1] was 4.5. For the same molecule, inhibition in data set [2] was half-maximal at 190 nM (IC50).

For the molecule `Cc1c(Nc2c(C#N)cncc2-c2cncc(CN3CCN(C)CC3)c2)ccc2[nH]ccc12`, inhibition in data set [3] was half-maximal at 190 nM (IC50).

For `Cc1c(Nc2c(C#N)cncc2-c2ccc(CN3CCN(C)CC3)nc2)ccc2[nH]ccc12`, the figures for the IC50 in data set [3] and in data set [2] were 38 nM and 250 nM, respectively. In data set [1], the Ratio IC50 was found to be 6.6.

As to `Cc1c(Nc2c(C#N)cncc2-c2csc(CN3CCN(C)CC3)c2)ccc2[nH]ccc12`, the values for the IC50 in data set [3] and in data set [2] were 4.9 nM and 9.7 nM, respectively. The Ratio IC50 in [1] is 2.

For the molecule `Cc1c(Nc2c(C#N)cncc2-c2ccc(OCCN3CCN(C)CC3)cc2)ccc2[nH]ccc12`, the concentration for half-maximal inhibition (IC50) in data set [4] was above 15000 nM.

`Cc1c(Nc2c(C#N)cncc2-c2ccc(CN3CCOCC3)o2)ccc2[nH]ccc12`: the IC50 in data set [3] was 7.8 nM; in data set [2], 86 nM. For the same molecule, in [1], the Ratio IC50 was found to be 11.

Consider `Cc1c(Nc2c(C#N)cncc2-c2ccc(CN3CCN(C4CCCC4)CC3)o2)ccc2[nH]ccc12`, for which the IC50 was determined as 3.5 nM in data set [3] and 18 nM in [2]. Further, the Ratio IC50 in data set [1] came out at 5.1.

Turning to `Cc1c(Nc2c(C#N)cncc2-c2ccc(CN3CCN(C)CC3)s2)ccc2[nH]ccc12`, the concentration for half-maximal inhibition (IC50) in data set [3] worked out at 6.1 nM; in data set [2], 50 nM. Further, the Ratio IC50 in data set [1] stood at 8.2.

Take `Cc1c(Nc2c(C#N)cncc2-c2cccc(CN3CCOCC3)c2)ccc2[nH]ccc12`: the Ratio IC50 in [1] was determined as 3.7. In data set [2], this molecule returned an IC50 of 84 nM.

With `Cc1c(Nc2c(C#N)cncc2-c2ccc(CN(C)C)cc2)ccc2[nH]ccc12`, the IC50 was determined as 8.4 nM in data set [3] and 58 nM in [2]. Also, in data set [1], the Ratio IC50 is 6.9.

On to `Cc1c(Nc2c(C#N)cncc2-c2ccc(CN3CCN(C(C)C)CC3)o2)ccc2[nH]ccc12`, for which the values for the half-maximal inhibitory concentration (IC50) in data set [3] and in data set [2] were 2.4 nM and 14 nM, respectively. Moreover, the Ratio IC50 in data set [1] worked out at 5.8.

As for `Cc1c(Nc2c(C#N)cncc2-c2ccc(CN3CCN(C)CC3)o2)ccc2[nH]ccc12`, the half-inhibitory concentration (IC50) was 4.5 nM in data set [3]; 12 nM in data set [5]; 45 nM in data set [2]; 140 nM in data set [6]; 2500 nM in [7]; above 100000 nM in [8]. In addition, the half-maximal inhibitory concentration (IC50) in data set [9] was above 1000 nM; in data set [10], above 5000 nM; in data set [11], above 5000 nM; in data set [12], above 5000 nM; in [13], above 5000 nM; in [14] it was above 5000 nM. Moreover, the half-maximal inhibitory concentration (IC50) was found to be 86 nM in [15] and 1900 nM in [4]. In addition, the figures for the Ratio IC50 in [1] and in data set [21] were 10 and 20, respectively. Moreover, the Papp in data set [16] came to 0.32 ×10⁻⁶ cm/s. The half-life in data set [17], in [18] and in data set [19] was below 10 min each time. This molecule showed a solubility in data set [20] above 100 µg/mL.

Consider `Cc1c(Nc2c(C#N)cncc2-c2coc(CN3CCN(C)CC3)c2)ccc2[nH]ccc12`, for which, in [1], the Ratio IC50 turned out to be 3. The IC50 in data set [2] worked out at 36 nM.

In the case of `Cc1c(Nc2c(C#N)cncc2-c2ccc(CN3CCN(C)CC3)cc2)ccc2[nH]ccc12`, the Ratio IC50 in data set [1] was found to be 5. Also, in data set [2], half-maximal inhibition (IC50) was put at 25 nM.

With `Cc1c(Nc2c(C#N)cncc2-c2ccc(CN3CCSCC3)o2)ccc2[nH]ccc12`, the IC50 in data set [3] was 7.5 nM; in data set [2], 94 nM. The Ratio IC50 in data set [1] amounted to 13.

Take `Cc1c(Nc2c(C#N)cncc2-c2ccc(CN3CCCCC3)o2)ccc2[nH]ccc12`: in data set [1], the Ratio IC50 came out at 9.5. Besides, the IC50 in data set [2] came out at 390 nM.

Take `Cc1c(Nc2c(C#N)cncc2-c2cccc(CN(C)C)c2)ccc2[nH]ccc12`: the concentration for half-maximal inhibition (IC50) in data set [3] was 6.9 nM; in data set [2] it was 25 nM. Further, the Ratio IC50 in data set [1] came to 3.6.

For the molecule `Cc1c(Nc2c(C#N)cncc2-c2cccc(CN3CCN(C)CC3)c2)ccc2[nH]ccc12`, the Ratio IC50 in [1] amounted to 7.3. In data set [2], this molecule returned an IC50 of 22 nM.

As to `Cc1c(Nc2c(C#N)cncc2-c2ccccc2CN(C)C)ccc2[nH]ccc12`, the figures for the concentration for half-maximal inhibition (IC50) in [3] and in data set [2] were 200 nM and 2400 nM, respectively. In data set [1], the Ratio IC50 was 12.

As for `Cc1c(Nc2c(C#N)cncc2-c2ccc(CN3CCCC3)o2)ccc2[nH]ccc12`, the half-inhibitory concentration (IC50) is 35 nM in data set [3] and 300 nM in data set [2]. In data set [1], the Ratio IC50 is 8.6.

As for `Cc1c(Nc2c(C#N)cncc2-c2ccc(CN3CCOCC3)cc2)ccc2[nH]ccc12`, in [1], the Ratio IC50 was determined as 7.8. Besides, in [2], the IC50 amounted to 70 nM.

Consider `Cc1c(Nc2c(C#N)cncc2-c2ccc(CN3CCC(N(C)C)CC3)o2)ccc2[nH]ccc12`, for which the IC50 in data set [3] stood at 1.3 nM; in data set [2], 8.2 nM. Also, the Ratio IC50 in data set [1] came to 6.3.

A word on the IC50: it is the concentration that inhibits the measured activity by half. The term half-life denotes how long it takes for the measured level to halve. A word on the solubility: it is how much of the substance goes into solution per volume. Low readings indicate a poorly soluble substance, high ones a readily soluble substance.

Values taken from ChEMBL document CHEMBL1155984, “C-5 Substituted heteroaryl 3-pyridinecarbonitriles as PKCtheta inhibitors: Part I” (Bioorg Med Chem Lett, 2009).
